Measurements from patent publication US9744152B2, “Vitamins C and K for treating polycystic diseases” (IC-MedTech Corporation, priority 2010, dated 2017).
Marks after values point to notes of the source that are not given here.

Key:
[1] = tested on: PCK rats; assay: Body, liver and kidney weights in PCK rats after 6 weeks of treatment; assay type: in vivo, rat; details: for Kidney Weight / Kidney Weight (% bw) / Liver Weight / Liver Weight (% bw): 6 weeks in drinking water; for Body Weight: 6 weeks in drinking water (VC 15 g/L; VK3 0.15 g/L; APATONE® 15 g/L + 0.15 g/L)
Description: (§1) Thirty seven PCK rats (20 females and 17 males) at age of 3 weeks were divided into four groups: (i) vitamin C (VC) treatment group: 5 females and 4 males; (ii) vitamin K3 (VK3) treatment group: 5 females and 4 males; (iii) APATONE® treatment group: 6 females and 5 males; and (iv) control group: 4 females and 4 males. Similarly, twenty Pkd2^WS25/− mice (12 females and 8 males) at age of 5 months were divided into four groups: (i) vitamin C (VC) treatment group: 3 females; (ii) vitamin K3 (VK3) treatment group: 2 females and 2 males; (iii) APATONE® treatment group: 4 females and 3 males; and (iv) control group: 3 females and 3 males.
(§2) The VC treatment groups were given vitamin C at a concentration of 15 g/L in drinking water. The VK3 treatment groups were given vitamin K3 at a concentration of 0.15 g/L in drinking water. The APATONE® treatment groups were given vitamins C and K3 at concentrations of 15 g/L and 0.15 g/L, respectively, in drinking water. The control groups were given drinking water only. Rats or mice in each group were allowed to drink freely.
(§3) The rats and mice were sacrificed after 6 weeks of treatment. The following parameters were analyzed: body weights, liver and kidney weights, serum biochemistry, renal and hepatic cystic and fibrotic areas, apoptotic and proliferation indices, expression of Cdc25A and its down-stream targets. […]

[2] = tested on: Pkd2^WS25/− mice; assay: Body, liver and kidney weights in Pkd2^WS25/− mice after 6 weeks of treatment; assay type: in vivo, mouse; details: for Kidney Weight / Kidney Weight (%) / Liver Weight / Liver Weight (%): 6 weeks in drinking water; for Body Weight: 6 weeks in drinking water (VC 15 g/L; VK3 0.15 g/L; APATONE® 15 g/L + 0.15 g/L)
Description: as §1, §2, §3

O=C1O[C@H]([C@@H](O)CO)C(O)=C1O [VC, L-ascorbic acid]
Kidney Weight ([1]; Female): 3.88 ± 0.19 g | Kidney Weight (% bw) ([1]; Female): 1.47 ± 0.11 % bw | Liver Weight ([1]; Female): 16.6 ± 1.3 g | Liver Weight (% bw) ([1]; Female): 6.36 ± 0.23 % bw | Body Weight ([1]; Female): 261 ± 10 g | Body Weight (g) Change vs Ctrl ([1]; Female): −3.3% | Kidney Weight (% bw) Change vs Ctrl ([1]; Female): −0.7% | Kidney Weight (g) Change vs Ctrl ([1]; Female): −2.8% | Liver Weight (% bw) Change vs Ctrl ([1]; Female): 0.8% | Liver Weight (g) Change vs Ctrl ([1]; Female): −2.8% | Kidney Weight ([1]; Male): 4.95 ± 0.18 g | Kidney Weight (% bw) ([1]; Male): 1.19 ± 0.13 % bw | Liver Weight ([1]; Male): 23.3 ± 1.8 g | Liver Weight (% bw) ([1]; Male): 5.61 ± 0.14 % bw | Body Weight ([1]; Male): 416 ± 13 g | Body Weight (g) Change vs Ctrl ([1]; Male): 0.8% | Kidney Weight (% bw) Change vs Ctrl ([1]; Male): 0% | Kidney Weight (g) Change vs Ctrl ([1]; Male): 1.2% | Liver Weight (% bw) Change vs Ctrl ([1]; Male): −1.2% | Liver Weight (g) Change vs Ctrl ([1]; Male): −0.4% | Kidney Weight [2]: 0.46 ± 0.04 g | Kidney Weight (%) [2]: 1.76 ± 0.16% | Liver Weight [2]: 2.29 ± 0.43 g | Liver Weight (%) [2]: 9.29 ± 2.01% | Body Weight [2]: 26.7 ± 2.0 g | Body Weight (g) Change vs Ctrl [2]: 1.5% | Kidney Weight (% bw) Change vs Ctrl [2]: −6.7% | Kidney Weight (g) Change vs Ctrl [2]: −6.1% | Liver Weight (% bw) Change vs Ctrl [2]: 15.4% | Liver Weight (g) Change vs Ctrl [2]: 8.0%

CC1=CC(=O)c2ccccc2C1=O [VK3, menadione]
Kidney Weight ([1]; Female): 3.78 ± 0.09 g | Kidney Weight (% bw) ([1]; Female): 1.36 ± 0.13 % bw | Liver Weight ([1]; Female): 15.5 ± 0.6 g | Liver Weight (% bw) ([1]; Female): 5.60 ± 0.13 % bw | Body Weight ([1]; Female): 276 ± 9 g | Body Weight (g) Change vs Ctrl ([1]; Female): 2.2% | Kidney Weight (% bw) Change vs Ctrl ([1]; Female): −8.1%* | Kidney Weight (g) Change vs Ctrl ([1]; Female): −5.2%* | Liver Weight (% bw) Change vs Ctrl ([1]; Female): −11.3%* | Liver Weight (g) Change vs Ctrl ([1]; Female): −9.2%* | Kidney Weight ([1]; Male): 4.57 ± 0.13 g | Kidney Weight (% bw) ([1]; Male): 1.11 ± 0.11 % bw | Liver Weight ([1]; Male): 20.8 ± 0.5 g | Liver Weight (% bw) ([1]; Male): 5.12 ± 0.09 % bw | Body Weight ([1]; Male): 408 ± 16 g | Body Weight (g) Change vs Ctrl ([1]; Male): −1.1% | Kidney Weight (% bw) Change vs Ctrl ([1]; Male): −6.7%* | Kidney Weight (g) Change vs Ctrl ([1]; Male): −6.5%* | Liver Weight (% bw) Change vs Ctrl ([1]; Male): −9.8%* | Liver Weight (g) Change vs Ctrl ([1]; Male): −10.9%* | Kidney Weight [2]: 0.42 ± 0.01 g | Kidney Weight (%) [2]: 1.53 ± 0.05% | Liver Weight [2]: 1.64 ± 0.15 g | Liver Weight (%) [2]: 5.87 ± 0.36% | Body Weight [2]: 27.9 ± 1.9 g | Body Weight (g) Change vs Ctrl [2]: 5.8% | Kidney Weight (% bw) Change vs Ctrl [2]: −19.0%* | Kidney Weight (g) Change vs Ctrl [2]: −14.3%* | Liver Weight (% bw) Change vs Ctrl [2]: −27.1%* | Liver Weight (g) Change vs Ctrl [2]: −22.6%*
